The values that follow come from PubChem BioAssay AID248 (DTP/NCI, 2004).

The test concerns L1210 leukemia ip in BDF1 mice, survival T/C. Nature of the test: NCI In Vivo Anticancer Drug Screen. Data for tumor model L1210 Leukemia (intraperitoneal) in B6D2F1 (BDF1) mice. The settings on record: higher = longer survival. In short, it runs like this:
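Tumor was transplanted into mice, which were then dosed with test compound or vehicle alone. Survival was recorded for each group, and the treated figure was expressed relative to the control figure.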

Setting [1] is: endpoint: mean survival time, dose: 100.0 mg/kg/injection, schedule: Q04DX003 (ip), vehicle: saline with Tween-80.
Where [2] appears, read: endpoint: mean survival time, dose: 200.0 mg/kg/injection, schedule: Q04DX003 (ip), vehicle: saline with Tween-80.
Where [3] appears, read: endpoint: mean survival time, dose: 400.0 mg/kg/injection, schedule: Q04DX003 (ip), vehicle: saline with Tween-80.

“And” between values parts separate entries of the source, which are not always exact repeats. Identical values can stand only once. Inconclusive results and toxic doses are left out.

For `S=P(N1CCOCC1)(N1CC1)N1CC1`, the T/C was 106 % of control (endpoint: mean survival time, dose: 2.4 mg/kg/injection, schedule: Q01DX001 (ip), vehicle: saline); 104 % of control (endpoint: mean survival time, dose: 2.4 mg/kg/injection, schedule: Q07DX003 (ip), vehicle: saline); 109 % of control (endpoint: mean survival time, dose: 2.5 mg/kg/injection, schedule: Q01DX Z (ip), vehicle: carboxymethylcellulose (CMC)); 102 % of control (endpoint: mean survival time, dose: 2.5 mg/kg/injection, schedule: Q#A X Z (ip), vehicle: saline); 117 % of control (endpoint: mean survival time, dose: 4.3 mg/kg/injection, schedule: Q01DX001 (ip), vehicle: saline); 113 % of control (endpoint: mean survival time, dose: 4.3 mg/kg/injection, schedule: Q07DX003 (ip), vehicle: saline). In addition, the T/C (endpoint: mean survival time, dose: 5.0 mg/kg/injection, schedule: Q01DX006 (iv), vehicle: saline) was 107 % of control; the T/C (endpoint: mean survival time, dose: 5.0 mg/kg/injection, schedule: Q01DX009 (ip), vehicle: saline) was 101 % of control and 104 % of control; the T/C (endpoint: mean survival time, dose: 5.0 mg/kg/injection, schedule: Q01DX010 (ip), vehicle: saline) was 97 % of control and 103 % of control; the T/C (endpoint: mean survival time, dose: 5.0 mg/kg/injection, schedule: Q01DX Z (im), vehicle: saline) is 104 % of control; the T/C (endpoint: mean survival time, dose: 5.0 mg/kg/injection, schedule: Q01DX Z (ip), vehicle: carboxymethylcellulose (CMC)) was 102 % of control; the T/C (endpoint: mean survival time, dose: 5.0 mg/kg/injection, schedule: Q01DX Z (ip), vehicle: saline) was 110 % of control. Besides, the T/C is 107 % of control (endpoint: mean survival time, dose: 5.0 mg/kg/injection, schedule: Q01DX Z (sc), vehicle: saline); 106 % of control (endpoint: mean survival time, dose: 5.0 mg/kg/injection, schedule: Q#A X Z (ip), vehicle: saline); 103 % of control (endpoint: mean survival time, dose: 8.7 mg/kg/injection, schedule: Q01DX001 (ip), vehicle: saline); 115 % of control (endpoint: mean survival time, dose: 8.7 mg/kg/injection, schedule: Q07DX003 (ip), vehicle: saline); 109 % of control (endpoint: mean survival time, dose: 10.0 mg/kg/injection, schedule: Q01DX006 (iv), vehicle: saline); 101 % of control and 104 % of control (endpoint: mean survival time, dose: 10.0 mg/kg/injection, schedule: Q01DX009 (ip), vehicle: saline). The T/C runs as follows: (endpoint: mean survival time, dose: 10.0 mg/kg/injection, schedule: Q01DX010 (ip), vehicle: saline) 114 % of control and 124 % of control; (endpoint: mean survival time, dose: 10.0 mg/kg/injection, schedule: Q01DX Z (im), vehicle: saline) 114 % of control; (endpoint: mean survival time, dose: 10.0 mg/kg/injection, schedule: Q01DX Z (ip), vehicle: carboxymethylcellulose (CMC)) 115 % of control; (endpoint: mean survival time, dose: 10.0 mg/kg/injection, schedule: Q01DX Z (ip), vehicle: saline) 116 % of control; (endpoint: mean survival time, dose: 10.0 mg/kg/injection, schedule: Q01DX Z (sc), vehicle: saline) 107 % of control; (endpoint: mean survival time, dose: 15.0 mg/kg/injection, schedule: Q03DX006 (ip), vehicle: saline) 118 % of control. In addition, the T/C runs as follows: (endpoint: mean survival time, dose: 17.5 mg/kg/injection, schedule: Q01DX001 (ip), vehicle: saline) 106 % of control; (endpoint: mean survival time, dose: 18.0 mg/kg/injection, schedule: Q01DX003 (ip), vehicle: saline) 118 % of control; (endpoint: mean survival time, dose: 20.0 mg/kg/injection, schedule: Q01DX009 (ip), vehicle: saline) 108 % of control and 120 % of control; (endpoint: mean survival time, dose: 20.0 mg/kg/injection, schedule: Q01DX010 (ip), vehicle: saline) 118 % of control and 119 % of control; (endpoint: mean survival time, dose: 20.0 mg/kg/injection, schedule: Q01DX Z (im), vehicle: saline) 168 % of control; (endpoint: mean survival time, dose: 20.0 mg/kg/injection, schedule: Q01DX Z (ip), vehicle: carboxymethylcellulose (CMC)) 123 % of control. Besides, the T/C (endpoint: mean survival time, dose: 20.0 mg/kg/injection, schedule: Q01DX Z (ip), vehicle: saline) was 160 % of control; the T/C (endpoint: mean survival time, dose: 20.0 mg/kg/injection, schedule: Q01DX Z (oral), vehicle: saline) is 122 % of control; the T/C (endpoint: mean survival time, dose: 26.0 mg/kg/injection, schedule: Q01DX003 (ip), vehicle: saline) is 166 % of control; the T/C (endpoint: mean survival time, dose: 30.0 mg/kg/injection, schedule: Q03DX006 (ip), vehicle: saline) is 160 % of control; the T/C (endpoint: mean survival time, dose: 35.0 mg/kg/injection, schedule: Q01DX001 (ip), vehicle: saline) was 120 % of control; the T/C (endpoint: mean survival time, dose: 40.0 mg/kg/injection, schedule: Q01DX003 (ip), vehicle: saline) is 150 % of control and 173 % of control. Further, the T/C is 101 % of control and 104 % of control (endpoint: mean survival time, dose: 40.0 mg/kg/injection, schedule: Q01DX009 (ip), vehicle: saline); 104 % of control (endpoint: mean survival time, dose: 40.0 mg/kg/injection, schedule: Q01DX010 (ip), vehicle: saline); 110 % of control (endpoint: mean survival time, dose: 40.0 mg/kg/injection, schedule: Q01DX Z (im), vehicle: saline); 89 % of control (endpoint: mean survival time, dose: 40.0 mg/kg/injection, schedule: Q01DX Z (ip), vehicle: saline); 92 % of control (endpoint: mean survival time, dose: 40.0 mg/kg/injection, schedule: Q#A X Z (ip), vehicle: saline); 156 % of control and 178 % of control (endpoint: mean survival time, dose: 60.0 mg/kg/injection, schedule: Q01DX003 (ip), vehicle: saline). For the same compound, the T/C by setting is: (endpoint: mean survival time, dose: 70.0 mg/kg/injection, schedule: Q07DX003 (ip), vehicle: saline) 178 % of control; (endpoint: mean survival time, dose: 80.0 mg/kg/injection, schedule: Q01DX006 (iv), vehicle: saline) 164 % of control; (endpoint: mean survival time, dose: 80.0 mg/kg/injection, schedule: Q01DX Z (oral), vehicle: saline) 100 % of control; (endpoint: mean survival time, dose: 140.0 mg/kg/injection, schedule: Q01DX001 (ip), vehicle: saline) 107 % of control; (endpoint: mean survival time, dose: 280.0 mg/kg/injection, schedule: Q01DX001 (ip), vehicle: saline) 102 % of control; (endpoint: median survival time, dose: 5.0 mg/kg/injection, schedule: Q01DX009 (ip), vehicle: saline) 100 % of control and 111 % of control. Moreover, the T/C is 106 % of control and 122 % of control (endpoint: median survival time, dose: 10.0 mg/kg/injection, schedule: Q01DX009 (ip), vehicle: saline); 166 % of control and 168 % of control (endpoint: median survival time, dose: 20.0 mg/kg/injection, schedule: Q01DX009 (ip), vehicle: saline); 122 % of control (endpoint: median survival time, dose: 40.0 mg/kg/injection, schedule: Q01DX009 (ip), vehicle: saline).
As for `OC/C(=C\c1ccccc1)c1ccccc1`, the T/C by setting is: under setting [1], 92 % of control; under setting [2], 94 % of control; under setting [3], 92 % of control.
On to `CC(C)NC(=O)C1C2CCC(CC2)C1C(=O)NC(C)C` (stereo unspecified), for which the T/C under setting [1] was 96 % of control, the T/C under setting [2] is 86 % of control and the T/C under setting [3] was 86 % of control.
As for `Cc1cc(S(=O)(=O)c2ccccc2)c(C)s1`, the T/C is, setting by setting: (endpoint: mean survival time, dose: 50.0 mg/kg/injection, schedule: Q01DX009 (ip), vehicle: saline) 91 % of control; (endpoint: mean survival time, dose: 50.0 mg/kg/injection, schedule: Q04DX003 (ip), vehicle: acetone) 96 % of control; (endpoint: mean survival time, dose: 100.0 mg/kg/injection, schedule: Q01DX001 (ip), vehicle: saline) 98 % of control; (endpoint: mean survival time, dose: 100.0 mg/kg/injection, schedule: Q01DX009 (ip), vehicle: saline) 89 % of control; (endpoint: mean survival time, dose: 100.0 mg/kg/injection, schedule: Q04DX003 (ip), vehicle: acetone) 96 % of control; (endpoint: mean survival time, dose: 200.0 mg/kg/injection, schedule: Q01DX001 (ip), vehicle: saline) 101 % of control. For the same compound, the T/C runs as follows: (endpoint: mean survival time, dose: 200.0 mg/kg/injection, schedule: Q01DX009 (ip), vehicle: saline) 94 % of control; (endpoint: mean survival time, dose: 200.0 mg/kg/injection, schedule: Q04DX003 (ip), vehicle: acetone) 94 % of control.
Take `ClC(Cl)(Cl)c1ccn(-c2ccccc2)n1`: the T/C (endpoint: mean survival time, dose: 25.0 mg/kg/injection, schedule: Q01DX001 (ip), vehicle: Klucel (hydroxypropylcellulose) (HPC)) is 110 % of control; the T/C (endpoint: mean survival time, dose: 50.0 mg/kg/injection, schedule: Q01DX001 (ip), vehicle: Klucel (hydroxypropylcellulose) (HPC)) was 100 % of control; the T/C (endpoint: mean survival time, dose: 100.0 mg/kg/injection, schedule: Q01DX001 (ip), vehicle: Klucel (hydroxypropylcellulose) (HPC)) is 101 % of control and 110 % of control.
On to `N#C/C(=C\c1ccccc1)c1cccc(Cl)c1`, for which the T/C (endpoint: mean survival time, dose: 100.0 mg/kg/injection, schedule: Q01DX009 (ip), vehicle: other) was 95 % of control and the T/C (endpoint: mean survival time, dose: 200.0 mg/kg/injection, schedule: Q01DX009 (ip), vehicle: other) is 87 % of control.
On to `[N-]=[N+]=C1C(c2ccccc2)=NC(c2nccc3ccccc23)=C1[N+](=O)[O-]`, for which the T/C was 113 % of control (endpoint: mean survival time, dose: 5.0 mg/kg/injection, schedule: Q01DX001 (ip), vehicle: saline); 102 % of control (endpoint: mean survival time, dose: 10.0 mg/kg/injection, schedule: Q01DX001 (ip), vehicle: saline); 110 % of control (endpoint: mean survival time, dose: 20.0 mg/kg/injection, schedule: Q01DX001 (ip), vehicle: saline).
On to `CCC(NC)c1ccccc1` (stereo unspecified), for which the T/C (endpoint: mean survival time, dose: 25.0 mg/kg/injection, schedule: Q04DX002 (ip), vehicle: saline) was 104 % of control; the T/C (endpoint: mean survival time, dose: 50.0 mg/kg/injection, schedule: Q04DX002 (ip), vehicle: saline) was 89 % of control; the T/C (endpoint: mean survival time, dose: 100.0 mg/kg/injection, schedule: Q04DX002 (ip), vehicle: saline) was 106 % of control.
